Assay [1] has as its system BVDV. The experiment in a line: Antiviral activity against BVDV by passaging virus in BT cells (CPE and viral titer). It counts as cell-based, bovine viral diarrhea virus. The conditions noted are these: for viral replication: after a single passage. The method, then:
(§1) Cytotoxicity was assayed using graded amounts of nucleoside analog in CV-1 cells or BT cells. 100 pfu of virus was inoculated in 10^5 CV-1 cells (MV) or BT cells (BVDV). Antiviral activity against MV or BVDV (an HCV surrogate) was tested by passaging the virus in the presence or absence of analog.
(§2) In screening experiments, replication of MV or BVDV was assessed by cytopathic effect (CPE) and viral titer after growth in cells for three to four days in the presence or absence of drug. […] Experiments were performed in triplicate (see FIGS. 2 and 4).

The subject of another assay is CV-1 cells or BT cells. The experiment in a line: Cytotoxicity with graded amounts of nucleoside analog. It counts as cell-based. Particulars: Cercopithecidae, cell line (CV-1 or BT) not specified. How it is done:
as §1

Assay [2] deals with measles virus (MV). The assay is described as follows: Antiviral activity against MV by passaging virus in CV-1 cells (CPE and viral titer). It counts as cell-based. The method, then:
as §1, §2

The test system of assay [3] is measles virus (MV). The experiment in a line: Sequencing of MV clones (matrix and polymerase fragments) for viral mutagenesis. Particulars: 0.15 mM, passage 4, 1 kb matrix and 1.7 kb polymerase fragments, vs DMSO control. It counts as cell-based. The method, then:
Fragment of 1 kb of matrix gene and 1.7 kb of polymerase of cones MV at passage 4, MV treated with 0.15 mM 5-formyl uridine vs. DMSO control.
(§3) For 5-formyl-uridine, sequencing was performed to confirm that viral extinction was due to viral mutagenesis by the nucleoside. Clones of MV were selected from treated and control virus at passage 4 and a 1 kb fragment of the matrix and a 1.7 kb fragment of the polymerase were sequenced. […] A fragment of the BVDV glycoprotein was also sequenced, in which the BVDV virus was treated with 2 mM 5-formyl-uridine.

For assay [4], the system named is BVDV. The experiment in a line: Sequencing of BVDV glycoprotein fragment for viral mutagenesis. It counts as cell-based, bovine viral diarrhea virus. The conditions noted are these: 2 mM, passage 1, BVDV glycoprotein fragment, vs DMSO control. How it is done:
Fragment of 1 kb glycoprotein gene of clones BVDV at passage 1, BVDV treated with 2 mM 5-formyl-uridine vs. DMSO control.
as §3

[5] abbreviates: concentration of 0.5 mM, within one passage.
[6] abbreviates: Bovine viral diarrhea virus isolates and strains.

pEC50, pIC50: −log10 of the molar value. Like-named read-outs stand apart in the source and are kept apart here. Bounds are passed on as bounds.

Turning to `Nc1nc(N)c2ncn([C@@H]3O[C@H](CO)[C@@H](O)[C@H]3O)c2n1` [2,6 diaminopurine riboside], in the assay with BVDV [1] (BVDV), the viral replication result is “inhibited”. Further, the negative logarithm of the EC50 (pEC50) (as a rule, −log10 of the EC50, conventionally taken in molar units) in the assay on BVDV [1] (BVDV, read-out: EC50) is 4.15.

`O=Cc1cn([C@@H]2O[C@H](CO)[C@@H](O)[C@H]2O)c(=O)[nH]c1=O` [5-formyl-uridine]: the pIC50 (in general, −log10 of the IC50, conventionally taken in molar units) in the assay with CV-1 cells or BT cells is under 3.00. The negative logarithm of the EC50 (pEC50) in the assay with measles virus (MV) [2] (Measles morbillivirus, CV-1) was 3.82; with BVDV [1] (setting [6]), 3.82. Moreover, the EC90 (commonly the point of the concentration-response curve where the effect stands at 90%) in the assay on measles virus (MV) [2] (Measles morbillivirus, CV-1) worked out at 300 µM; in the assay on BVDV [1] (setting [6]), 400 µM. The “inhibition of MV replication” value with measles virus (MV) [2] (setting [5]) was “completely inhibited”. Further, the “inhibition of BVDV replication” value in the assay on BVDV [1] (setting [5]) was “completely inhibited”. Also, the “mutation rate above the spontaneous mutation rate of MV” value with measles virus (MV) [3] turned out to be 1.6 fold. In the assay with BVDV [4], this molecule came in with an increase in mutation of 3.75 fold.

Consider `Nc1[nH]c(=O)nc2c1ncn2[C@@H]1O[C@H](CO)[C@@H](O)[C@H]1O` [isoguanosine], for which the viral replication entry with BVDV [1] (BVDV) is on record as “inhibited”. In the assay on BVDV [1] (setting [6]), this molecule showed a pEC50 of 4.10.

The record behind these values is US7648967B2, “Mutagenic nucleoside analogs for the treatment of viral disease” (priority 2001, dated 2010).
